Results published in article PMC4775387 (Neurochemical research, 2015).

Test system: D4 receptors, ICR mouse striatum
Test: Antagonist effect on D-301-stimulated [35S]GTPγS binding in ICR mouse striatum
Assay type: biochemical
Conditions: antagonist concentrations up to 1 μM, unpublished data

`Clc1ccc(N2CCN(Cc3c[nH]c4ncccc34)CC2)cc1` [LY745870] was tested, and the “effect on D-301-stimulated [35S]GTPγS binding” value was “no significant effect”.
